According to patent publication US10646488B2 (Araxes Pharma LLC, priority 2016, dated 2020):

Molecular target: T1, KRAS G12C 1-169, his-tagged protein, GDP-loaded (Homo sapiens, UniProt P01116, G12C)
T1 construct: KRAS G12C 1-169, his-tagged protein, GDP-loaded
Assay: Covalent binding (% modification) to KRAS G12C by mass spectrometry; also: test concentration or dose not given here
Conditions: covalent binding to KRAS G12C after a ten minute incubation period

Structure (SMILES) | Binding %
C=CC(=O)N1C[C@@H](C)N(c2nc(NC3CCN(C4CC4)CC3)nc3c(F)c(-c4c(C)ccc5cn[nH]c45)c(Cl)cc23)[C@@H](C)C1 [Compound 43, 1-((3S,5R)-4-(6-chloro-2-((1-cyclopropyl-piperidin-4-yl)amino)-8-fluoro-7-(6-methyl-1H-indazol-7-yl)quinazolin-4-yl)-3,5-dimethyl-piperazin-1-yl) prop-2-en-1-one] | ++ (++ indicates binding activity from 50 to 90%)
C=CC(=O)N1C[C@@H](C)N(c2nc(N3CC(N(C)C)C3)nc3c(F)c(-c4c(C)ccc5cn[nH]c45)c(Cl)cc23)[C@@H](C)C1 [Compound 44, 1-((3S,5R)-4-(6-chloro-2-(3-(dimethylamino)azetidin-1-yl)-8-fluoro-7-(6-methyl-1H-indazol-7-yl)quinazolin-4-yl)-3,5-dimethyl-piperazin-1-yl) prop-2-en-1-one] | ++ (++ indicates binding activity from 50 to 90%)
C=CC(=O)N1C[C@@H](C)N(c2nc(OCCN3CC(F)(F)C3)nc3c(F)c(-c4c(C)ccc5[nH]ncc45)c(Cl)cc23)[C@@H](C)C1 [Compound 45, 1-((3S,5R)-4-(6-chloro-2-(2-(3,3-difluoroazetidin-1-yl)ethoxy)-8-fluoro-7-(5-methyl-1H-indazol-4-yl)quinazolin-4-yl)-3,5-dimethyl-piperazin-1-yl) prop-2-en-1-one] | ++ (++ indicates binding activity from 50 to 90%)
C=CC(=O)N1[C@H](C)CN(c2nc(OCCN(CC)CC)nc3c(F)c(-c4c(C)ccc5[nH]ncc45)c(Cl)cc23)C[C@@H]1C [Compound 46, 1-((2R,6S)-4-(6-Chloro-2-(2-(Diethylamino)Ethoxy)-8-Fluoro-7-(5-Methyl-1H-Indazol-4-Yl)Quinazolin-4-Yl)-2,6-Dimethylpiperazin-1-Yl)Prop-2-En-1-One] | ++ (++ indicates binding activity from 50 to 90%)
C=CC(=O)N1C[C@@H](C)N(c2nc(OCCN3CC(F)(F)C3)nc3c(F)c(-c4c(C)ccc5cn[nH]c45)c(Cl)cc23)[C@@H](C)C1 [Compound 47, 1-((3S,5R)-4-(6-chloro-2-(2-(3,3-difluoroazetidin-1-yl)ethoxy)-8-fluoro-7-(6-methyl-1H-indazol-7-yl)quinazolin-4-yl)-3,5-dimethyl-piperazin-1-yl) prop-2-en-1-one] | ++ (++ indicates binding activity from 50 to 90%)
C=CC(=O)N1C[C@H](C)N(c2nc(OCCN(CC)CC)nc3c(F)c(-c4c(O)cccc4F)c(Cl)cc23)C[C@H]1C [Compound 48, 1-((2R,5S)-4-(6-chloro-2-(2-(diethylamino)ethoxy)-8-fluoro-7-(2-fluoro-6-hydroxyphenyl)quinazolin-4-yl)-2,5-dimethyl-piperazin-1-yl) prop-2-en-1-one] | ++ (++ indicates binding activity from 50 to 90%)
C=CC(=O)N1C[C@@H](C)N(c2nc(OCCc3ccccn3)nc3c(F)c(-c4c(O)cccc4F)c(Cl)cc23)[C@@H](C)C1 [Compound 49, 1-((3S,5R)-4-(6-chloro-8-fluoro-7-(2-fluoro-6-hydroxyphenyl)-2-(2-(pyridin-2-yl)ethoxy)quinazolin-4-yl)-3,5-dimethyl-piperazin-1-yl) prop-2-en-1-one] | ++ (++ indicates binding activity from 50 to 90%)
C=CC(=O)N1C[C@H](C)N(c2nc(NC3CCN(C4CC4)CC3)nc3c(F)c(-c4c(C)ccc5[nH]ncc45)c(Cl)cc23)C[C@H]1C [Compound 50, 1-((2R,5S)-4-(6-chloro-2-((1-cyclopropyl-piperidin-4-yl)amino)-8-fluoro-7-(5-methyl-1H-indazol-4-yl)quinazolin-4-yl)-2,5-dimethyl-piperazin-1-yl) prop-2-en-1-one] | ++ (++ indicates binding activity from 50 to 90%)
C=CC(=O)N1C[C@H](C)N(c2nc(O)nc3c(F)c(-c4c(O)cccc4F)c(Cl)cc23)C[C@H]1C [Compound 51, 1-((2R,5S)-4-(6-chloro-8-fluoro-7-(2-fluoro-6-hydroxyphenyl)-2-hydroxy-quinazolin-4-yl)-2,5-dimethyl-piperazin-1-yl) prop-2-en-1-one] | + (+ indicates binding activity up to 50%)
C=CC(=O)N1C[C@H](C)N(c2nc(N3CC(N(C)C)C3)nc3c(F)c(-c4c(C)ccc5[nH]ncc45)c(Cl)cc23)C[C@H]1C [Compound 54, 1-((2R,5S)-4-(6-chloro-2-(3-(dimethylamino)azetidin-1-yl)-8-fluoro-7-(5-methyl-1H-indazol-4-yl)quinazolin-4-yl)-2,5-dimethyl-piperazin-1-yl) prop-2-en-1-one] | +++ (+++ indicates binding activity greater than 90%)
C=CC(=O)N1C[C@H](C)N(c2nc(OCCN3CC(F)(F)C3)nc3c(F)c(-c4c(C)ccc5[nH]ncc45)c(Cl)cc23)C[C@H]1C [Compound 55, 1-((2R,5S)-4-(6-chloro-2-(2-(3,3-difluoroazetidin-1-yl)ethoxy)-8-fluoro-7-(5-methyl-1H-indazol-4-yl)quinazolin-4-yl)-2,5-dimethyl-piperazin-1-yl) prop-2-en-1-one] | +++ (+++ indicates binding activity greater than 90%)
C=CC(=O)N1CCN(c2nc(N3CC(N(C)C)C3)nc3c(F)c(-c4c(O)cccc4F)c(Cl)cc23)C[C@H]1C [Compound 56, 1-((2R)-4-(6-chloro-2-(3-(dimethylamino)azetidin-1-yl)-8-fluoro-7-(2-fluoro-6-hydroxyphenyl)quinazolin-4-yl)-2-methylpiperazin-1-yl)prop-2-en-1-one] | +++ (+++ indicates binding activity greater than 90%)
C=CC(=O)N1CCN(c2nc(OCCN3CC(F)(F)C3)nc3c(F)c(-c4c(O)cccc4F)c(Cl)cc23)C[C@H]1C [Compound 57, 1-((2R)-4-(6-chloro-2-(2-(3,3-difluoroazetidin-1-yl)ethoxy)-8-fluoro-7-(2-fluoro-6-hydroxyphenyl)quinazolin-4-yl)-2-methyl-piperazin-1-yl) prop-2-en-1-one] | +++ (+++ indicates binding activity greater than 90%)
C=CC(=O)N1C[C@@H](C)N(c2nc(N3CC(CO)C3)nc3c(F)c(-c4c(O)cccc4F)c(Cl)cc23)[C@@H](C)C1 [Compound 64, 1-((3R,5S)-4-(6-chloro-8-fluoro-7-(2-fluoro-6-hydroxyphenyl)-2-(3-(hydroxy-methyl)azetidin-1-yl)quinazolin-4-yl)-3,5-dimethyl-piperazin-1-yl) prop-2-en-1-one] | ++ (++ indicates binding activity from 50 to 90%)
C=CC(=O)N1C[C@H](C)N(c2nc(OCCc3ccccn3)nc3c(F)c(-c4c(O)cccc4F)c(Cl)cc23)C[C@H]1C [Compound 65, 1-((2R,5S)-4-(6-chloro-8-fluoro-7-(2-fluoro-6-hydroxyphenyl)-2-(2-(pyridin-2-yl)ethoxy)quinazolin-4-yl)-2,5-dimethyl-piperazin-1-yl) prop-2-en-1-one] | +++ (+++ indicates binding activity greater than 90%)
C=CC(=O)N1C[C@@H](C)N(c2nc(N3CC(O)C3)nc3c(F)c(-c4c(O)cccc4F)c(Cl)cc23)[C@@H](C)C1 [Compound 66, 1-((3R,5S)-4-(6-chloro-8-fluoro-7-(2-fluoro-6-hydroxyphenyl)-2-(3-hydroxyazetidin-1-yl)quinazolin-4-yl)-3,5-dimethyl-piperazin-1-yl) prop-2-en-1-one] | +++ (+++ indicates binding activity greater than 90%)
C=CC(=O)N1[C@H](C)CN(c2nc(N3CC(N(C)C)C3)nc3c(F)c(-c4c(O)cccc4F)c(Cl)cc23)C[C@@H]1C [Compound 67, 1-((2R,6S)-4-((S)-6-chloro-2-(3-(dimethylamino)azetidin-1-yl)-8-fluoro-7-(2-fluoro-6-hydroxyphenyl)quinazolin-4-yl)-2,6-dimethyl-piperazin-1-yl) prop-2-en-1-one] | + (+ indicates binding activity up to 50%)
C=CC(=O)N1[C@H](C)CN(c2nc(N3CC(N(C)C)C3)nc3c(F)c(-c4c(O)cccc4F)c(Cl)cc23)C[C@@H]1C [Compound 68, 1-((2R,6S)-4-((R)-6-chloro-2-(3-(dimethylamino)azetidin-1-yl)-8-fluoro-7-(2-fluoro-6-hydroxyphenyl)quinazolin-4-yl)-2,6-dimethyl-piperazin-1-yl) prop-2-en-1-one] | +++ (+++ indicates binding activity greater than 90%)
C=CC(=O)N1CCN(c2nc(N3CC(N(C)C)C3)nc3c(F)c(-c4c(C)ccc5cn[nH]c45)c(Cl)cc23)C[C@H]1C [Compound 69, 1-((2R)-4-(6-chloro-2-(3-(dimethylamino)azetidin-1-yl)-8-fluoro-7-(6-methyl-1H-indazol-7-yl)quinazolin-4-yl)-2-methyl-piperazin-1-yl) prop-2-en-1-one] | +++ (+++ indicates binding activity greater than 90%)
C=CC(=O)N1CCN(c2c(C#N)c(N3CC(N(C)C)C3)nc3c(F)c(-c4c(O)cccc4F)c(Cl)cc23)C[C@H]1C [Compound 76] | + (+ indicates binding activity up to 50%)
C=CC(=O)N1C[C@H](C)N(c2nc(OCCN(CC)CC)nc3c(F)c(-c4c(C)ccc5[nH]ncc45)c(Cl)cc23)C[C@H]1C [Compound 77, 1-((2R,5S)-4-(6-chloro-2-(2-(diethylamino)ethoxy)-8-fluoro-7-(5-methyl-1H-indazol-4-yl)quinazolin-4-yl)-2,5-dimethyl-piperazin-1-yl) prop-2-en-1-one] | +++ (+++ indicates binding activity greater than 90%)
C=CC(=O)N1C[C@H](C)N(c2nc(OC3CCN(C4CC4)CC3)nc3c(F)c(-c4c(C)ccc5[nH]ncc45)c(Cl)cc23)C[C@H]1C [Compound 78, 1-((2R,5S)-4-(6-chloro-2-((1-cyclopropyl-piperidin-4-yl)oxy)-8-fluoro-7-(5-methyl-1H-indazol-4-yl)quinazolin-4-yl)-2,5-dimethyl-piperazin-1-yl) prop-2-en-1-one] | ++ (++ indicates binding activity from 50 to 90%)
C=CC(=O)N1C[C@H](C)N(c2nc(OC3CCN(C(C)C)CC3)nc3c(F)c(-c4c(C)ccc5[nH]ncc45)c(Cl)cc23)C[C@H]1C [Compound 79, 1-((2R,5S)-4-(6-chloro-8-fluoro-2-((1-isopropyl-piperidin-4-yl)oxy)-7-(5-methyl-1H-indazol-4-yl)quinazolin-4-yl)-2,5-dimethyl-piperazin-1-yl) prop-2-en-1-one] | +++ (+++ indicates binding activity greater than 90%)
